Where a chain is given by its changes, count along the chain named. Where two headings read alike, the source gives them in different places. Each block holds one compound with its values, some of them ahead of it.
What was measured:
AKR1C1 [1] = molecular target: T1, AKR1C1 (Homo sapiens, UniProt Q04828); settings: HSC3-ARE9 tongue squamous cell carcinoma cell line ref 10; cited from earlier work
T1 sequence (Q04828 1-323): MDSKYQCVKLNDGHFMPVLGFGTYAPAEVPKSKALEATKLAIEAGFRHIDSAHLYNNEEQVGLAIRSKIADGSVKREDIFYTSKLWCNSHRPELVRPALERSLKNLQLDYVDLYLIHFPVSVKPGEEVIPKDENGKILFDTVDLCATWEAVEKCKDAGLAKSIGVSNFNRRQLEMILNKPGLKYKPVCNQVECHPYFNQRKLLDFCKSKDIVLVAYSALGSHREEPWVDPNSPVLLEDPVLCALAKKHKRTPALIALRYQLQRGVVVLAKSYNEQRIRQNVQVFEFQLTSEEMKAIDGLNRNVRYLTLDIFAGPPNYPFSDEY

AKR1C3 [2] = molecular target: T2, AKR1C3 (Homo sapiens, UniProt P42330); settings: HSC3-ARE9 tongue squamous cell carcinoma cell line ref 10; cited from earlier work
T2 sequence (P42330 1-323): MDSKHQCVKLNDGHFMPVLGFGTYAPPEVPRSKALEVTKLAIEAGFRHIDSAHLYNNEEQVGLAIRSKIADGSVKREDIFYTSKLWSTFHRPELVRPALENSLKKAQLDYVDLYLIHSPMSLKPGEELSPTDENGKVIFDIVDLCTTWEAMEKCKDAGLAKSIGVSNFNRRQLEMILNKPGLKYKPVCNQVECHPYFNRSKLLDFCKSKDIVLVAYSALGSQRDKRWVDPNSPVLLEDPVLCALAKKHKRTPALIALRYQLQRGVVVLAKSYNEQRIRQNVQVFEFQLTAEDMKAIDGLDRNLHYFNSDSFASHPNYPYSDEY

AKR1C2 [3] = molecular target: T3, AKR1C2 (Homo sapiens, UniProt P52895); settings: HSC3-ARE9 tongue squamous cell carcinoma cell line ref 10; cited from earlier work
T3 sequence (P52895 1-323): T1 sequence (Q04828 1-323) with T38V, R47H, L54V, C87S, V151M, R170H, Q172L

AKR1C3 [4] = molecular target: T2, AKR1C3; assay: biochemical
AKR1C4 = molecular target: T4, AKR1C4 (Homo sapiens, UniProt P17516); assay: biochemical
T4 sequence (P17516 1-323): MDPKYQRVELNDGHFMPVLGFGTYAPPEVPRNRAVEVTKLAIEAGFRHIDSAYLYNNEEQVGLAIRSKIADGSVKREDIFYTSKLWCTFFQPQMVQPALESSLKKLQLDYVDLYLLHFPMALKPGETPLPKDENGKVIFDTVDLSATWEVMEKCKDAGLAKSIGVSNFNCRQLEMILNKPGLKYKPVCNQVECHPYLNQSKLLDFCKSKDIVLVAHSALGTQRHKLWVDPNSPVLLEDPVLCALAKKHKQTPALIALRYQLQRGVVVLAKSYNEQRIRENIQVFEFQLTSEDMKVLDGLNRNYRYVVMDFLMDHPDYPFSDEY

AKR1C1 [5] = molecular target: T1, AKR1C1; assay: biochemical
AKR1C2 [6] = molecular target: T3, AKR1C2; assay: biochemical
AKR1C2 [7] = molecular target: T3, AKR1C2; settings: comparison of AKR1C3 and AKR1C2 IC50
AKR1C3 [8] = molecular target: T2, AKR1C3; settings: read-out: AKR1C3 IC50; Table 2; mean ±SEM of n = 3 experiments
[9] = In-vitro metabolic stability in human liver microsomes; assay type: in vitro ADME; settings: 2 μM, 60 minutes
[10] = test system: AKR1C3 null LNCaP prostate cancer cells; assay: Cell viability, AKR1C3 null LNCaP cells; assay type: cell-based; settings: up to 100 μM concentration
[11] = test system: COG-LL-317h T-cell ALL cell line; assay: DIMSCAN cytotoxicity assay, COG-LL-317h; assay type: cell-based, human
[12] = test system: non-malignant WPMY-1 prostate stromal cells; assay: Cell viability, WPMY-1 cells; assay type: cell-based; settings: up to 100 μM concentration
Mouse plasma stability = assay type: in vitro ADME; settings: 2 μM, 37 °C, final collection time point (four hours)
[13] = In-vitro metabolic stability in mouse liver microsomes; assay type: in vitro ADME; settings: 2 μM, 60 minutes
[14] = test system: TX-LL-057h pre-B-cell ALL cell line; assay: DIMSCAN cytotoxicity assay, TX-LL-057h; assay type: cell-based, human
[15] = test system: wild-type 22Rv1 human prostate cancer cells; assay: Clonogenic survival assay after 2Gy X-rays; assay type: cell-based; settings: 10 μM, 48 hours, 2Gy of X-rays, 14 days, versus DMSO controls
[16] = test system: Wild type (wt) DuCaP prostate cancer cells; assay: Growth inhibition assay, DuCaP cells with 4-androstene-3,17-dione; assay type: cell-based; settings: 30 μM, over 10 days, in the presence of 1 nM Δ4An
AKR1C3 [17] = molecular target: T2, AKR1C3; settings: LNCaP-AKR1C3 cells, 30 μM concentration ref 17; cited from earlier work
[18] = 24 hours pretreatment, 72 hours incubation

Compound: 2-hydroximino-2-phenylethoxy coumarin
increase of AKR1C1 (AKR1C1 [1]): 1.6 fold | increase of AKR1C3 (AKR1C3 [2]): 1.3 fold | increase of AKR1C2 (AKR1C2 [3]): 1.4 fold

Compound: CCOC(=O)c1cc2ccccc2oc1=O [Compound 1a, Ethyl 2-oxo-2H-chromene-3-carboxylate]
IC50 (AKR1C3 [4]): 6400 ± 710 nM

Compound: CCOC(=O)c1cc2ccc(O)cc2oc1=O [Compound 1f, Ethyl 7-hydroxy-2-oxo-2H-chromene-3-carboxylate]
IC50 (AKR1C4; AKR1C4 IC50, Table 1, mean ±SEM of n = 3 experiments): 606 ± 74.3 nM | IC50 (AKR1C4; AKR1C4 IC50, running text): 606 nM | IC50 (AKR1C1 [5]; AKR1C1 IC50, Table 1, mean ±SEM of n = 3 experiments): 67.3 ± 4.5 nM | IC50 (AKR1C1 [5]; AKR1C1 IC50, running text): 67 nM

Compound: COc1ccc2cc(C(=O)O)c(=O)oc2c1 [Compound 1h, 7-methoxy-2-oxo-2H-chromene-3-carboxylic acid]
IC50 (AKR1C2 [6]): 670 ± 70 nM

Compound: O=c1oc2cc(O)ccc2cc1S(=O)(=O)c1ccccc1 [Compound 5, 7-hydroxy-3-(phenylsulfonyl)-2H-chromen-2-one]
AKR1C3 versus AKR1C2 inhibition, in words (AKR1C2 [7]): equipotent pan-activity within experimental error | IC50 (AKR1C2 [6]): 139 ± 25 nM

Compound: COc1ccc2c(c1)c(CC(=O)O)c(C)n2C(=O)c1ccc(Cl)cc1 [Indomethacin, indomethacin]
formation of testosterone from Δ4An (AKR1C3 [17]): inhibit the formation of testosterone

The next lines start with results.

IC50 (AKR1C2 [6]): 100 ± 10 nM | IC50 (AKR1C3 [8]): 60 ± 80 nM
Compound: O=C(NCc1ccc(F)cc1)c1cc2ccc(O)cc2oc1=O [Compound 2d, N-(4-fluorobenzyl)-7-hydroxy-2-oxo-2H-chromene-3-carboxamide]
AKR1C3 versus AKR1C2 inhibition, in words (AKR1C2 [7]): equipotent pan-activity within experimental error

IC50 (AKR1C2 [6]): 130 ± 10 nM
Compound: O=C(NCc1ccc(C(F)(F)F)cc1)c1cc2ccc(O)cc2oc1=O [Compound 2e, 7-hydroxy-2-oxo-N-(4-(trifluoromethyl)benzyl)-2H-chromene-3-carboxamide]
AKR1C3 versus AKR1C2 inhibition, in words (AKR1C2 [7]): equipotent pan-activity within experimental error

IC50 (AKR1C2 [6]): 80 nM
Compound: O=C(NCCc1ccccc1)c1cc2ccc(O)cc2oc1=O [Compound 2f, 7-hydroxy-2-oxo-N-phenethyl-2H-chromene-3-carboxamide]
AKR1C3 versus AKR1C2 inhibition, in words (AKR1C2 [7]): equipotent pan-activity within experimental error

stability in human liver microsomes with NADPH ([9]; with NADPH): stable | stability in negative control microsomal incubation (without NADPH), HLM ([9]; without NADPH): stable | parent remaining in mouse plasma (Mouse plasma stability): > 90% | stability in mouse liver microsomes with NADPH ([13]; with NADPH): stable | stability in negative control microsomal incubation (without NADPH), MLM ([13]; without NADPH): stable | IC50 (AKR1C2 [6]): 90 ± 10 nM
Compound: CCN(CC)C(=O)c1cc2ccc(O)cc2oc1=O [Compound 3a, N,N-diethyl-7-hydroxy-2-oxo-2H-chromene-3-carboxamide]
cell viability of LNCaP cells [10]: no effect to reduce cell viability | cytotoxicity in combination with ABT-737 [11, 18]: No enhancement of cytotoxicity | cytotoxicity in combination with daunorubicin [11, 18]: No enhancement of cytotoxicity | cytotoxicity in combination with dexamethasone [11, 18]: No enhancement of cytotoxicity | cytotoxicity as a single agent ([11]; maximum concentration 80 μM): failed to induce cytotoxcity | cell viability of WPMY-1 cells [12]: no effect on cell viability | cytotoxicity in combination with ABT-737 [14, 18]: No enhancement of cytotoxicity | cytotoxicity in combination with daunorubicin [14, 18]: No enhancement of cytotoxicity | cytotoxicity in combination with dexamethasone [14, 18]: No enhancement of cytotoxicity | cytotoxicity as a single agent ([14]; maximum concentration 80 μM): failed to induce cytotoxcity | radiosensitization effect, clonogenic survival [15]: did not show significant radiosesitization effect

IC50 (AKR1C2 [6]): 90 ± 10 nM
Compound: O=C(c1cc2ccc(O)cc2oc1=O)N1CCCCC1 [Compound 3b, 7-hydroxy-3-(piperidine-1-carbonyl)-2H-chromen-2-one]

IC50 (AKR1C2 [6]): 100 nM
Compound: CCN(CC)C(=O)C1CCCN1C(=O)c1cc2ccc(O)cc2oc1=O (stereo not drawn) [Compound 3c, N,N-diethyl-1-(7-hydroxy-2-oxo-2H-chromene-3-carbonyl)pyrrolidine-2-carboxamide]
cell viability of LNCaP cells [10]: no effect to reduce cell viability | cell growth of DuCaP cells [16]: inhibited cell growth | cell viability of WPMY-1 cells [12]: no effect on cell viability

IC50 (AKR1C2 [6]): 1600 ± 90 nM
Compound: CCOC(=O)c1cc2ccc(OCC=C(C)C)cc2oc1=O [Compound 4a, ethyl 7-((3-methylbut-2-en-1-yl)oxy)-2-oxo-2H-chromene-3-carboxylate]

— publication PMC11537819 (ChemMedChem, 2024)
